For 39 compounds, cytotoxicity results are on record in ChEMBL document CHEMBL3507680, “University of Dundee, Gates Library screen for HepG2 cell viability”.

Molecules are shown by their SMILES.

The nature of the data set: Human HepG2 cell viability assay in 384 well format. Type of data set: toxicity, cell-based. Also noted: dose 125 nL, time 70.5 hour; concentration not given beside the values. As to conditions: HepG2 cells, read-out: Inhibition.
Turning to `O=C(c1cccc(Cl)c1F)N1CCOC2(CNCCOC2)C1` (centres undefined), the cytotoxicity at 70.5 h came out at 32.2%.

For the compound `COCCC(=O)N1CCc2nc(N3CCOCC3)nc(NC(C)C)c2C1`, the cytotoxicity at 70.5 h is -17%. The value for `N#Cc1cn(C2CC2)c(=O)n(CC(O)c2ccccc2F)c1=O` (centres undefined) was -17%; that for `CCCN1CCN(C(=O)Cc2nc(-c3ccco3)oc2C)CC1` was -7.9%; that for `CCCC(=O)N1CCCN(C(=O)c2oc(C)nc2C)CC1` was -4.74%. With `Cc1ccsc1CNCc1c(C(C)C)nn(C)c1N1CCOCC1`, the cytotoxicity at 70.5 h was -20.5%.

For `Cc1nc2ccccc2nc1CN1CCc2c(nc(C3CC3)n2C)C1`, the cytotoxicity at 70.5 h was -0.539%. The same measure for `Cc1cc(CN2CCN(C(=O)NC(C)c3cccnc3)CC2)no1` (centres undefined): -8.62%; for `Cc1cccc(N(CC(=O)N2CCCCC2)Cc2ccno2)c1`: -5.71%; for `Cc1cccc(C(=O)Nc2ccc(OC3CCOCC3)c(C)c2)n1`: 15.2%.

Regarding `Cc1ncsc1C(=O)N1CCCC(CO)(CC2CC2)C1` (centres undefined), the cytotoxicity at 70.5 h is -7.6%. As for `NC(=O)c1c[nH]nc1NC(=O)c1cccc(Cl)c1`, the cytotoxicity at 70.5 h was -3.76%. Turning to `Clc1ccccc1-c1nnc(CSCCN2CCOCC2)o1`, the cytotoxicity at 70.5 h is -2.19%. The value for `N#Cc1ccccc1CN1CCCCC1Cn1cncn1` (centres undefined) was -20%. The same measure for `CN(Cc1cc2n(n1)CCNC2)Cc1cc(-c2ccccn2)no1`: -5.4%.

Take `CN(c1ccc(C(=O)NCCCN2CCCCC2)c(Cl)c1)S(C)(=O)=O`: the cytotoxicity at 70.5 h was -2.79%. With `Cc1noc(C(C)C)c1C(=O)N1CCOCC1CC(=O)c1ccco1` (centres undefined), the cytotoxicity at 70.5 h was -5.66%. The value for `O=C(CCO)N1C[C@H]2CC[C@@H]1CN(C1Cc3ccccc3C1)C2` was -9.88%; that for `CN(C)CCN1C(=O)CCC12CCCN(C(=O)C1CC=CC1)CC2` (centres undefined) was -1.28%.

`CC(C)CN(c1cn[nH]c1)S(=O)(=O)c1cccc(C#N)c1`: the cytotoxicity at 70.5 h is -6.94%. The value for `CC(C)NC(=O)CCNC(=O)c1cc(F)ccc1NS(C)(=O)=O` was 15.1%.

Turning to `O=C(C1CCOCC1)N1CC[C@@H](O)[C@@H]1Cc1ccncc1`, the cytotoxicity at 70.5 h was -0.548%. The same measure for `Cc1nn(C)c2c(N3CCN(C(=O)C(C)C)CC3)ncnc12`: -5.46%; for `Cc1cnc(N2CCc3c(c(COc4cncnc4)nn3C)C2)nc1`: -6.03%; for `CC(=O)c1c(F)cccc1N1CCC(Cc2cccnc2)CC1`: 9.22%. The value for `COCCC(=O)N1CCC2(CN(Cc3cccc(Cl)c3)C2)C1` was 33.3%; that for `O=C(c1ccoc1)N1CCc2ncc(Cn3cccn3)n2CC1` was -7.98%; that for `Cc1ccc(NC(=O)N2CCCN(C(N)=O)CC2)s1` was 7.8%. For `Cc1ccc(NC(=O)[C@H]2C[C@H](C(=O)O)CN(CC3CC3)C2)cn1`, the cytotoxicity at 70.5 h was -21.8%. For the compound `COCCN(C)C[C@@H]1CN(C(=O)c2cccc(C#N)c2)C[C@@H]1CO`, the cytotoxicity at 70.5 h was found to be 12.6%.

In the case of `COc1cccc(C2CC(=O)Nc3nc(N)sc32)c1OC` (centres undefined), the cytotoxicity at 70.5 h stood at 12.4%.

On to `CC(C)n1cc(CN2CCCN(C(=O)C3CCOC3)CC2)cn1` (centres undefined), for which the cytotoxicity at 70.5 h is 19.9%.

For `COc1ccc(CNC(=O)Cc2csc(C(C)=O)c2)cc1`, the cytotoxicity at 70.5 h is -8.65%. The value for `Cc1c(COC(C)C)cccc1NC(=O)N1CCC(N2CCCC2)C1` (centres undefined) was 9%; that for `CC1CCN(CCNC(=O)c2cncnc2C(C)C)CC1` was -5.55%. The same measure for `O=C(NCC1CCS(=O)(=O)C1)c1sccc1-c1ccc(F)cc1` (centres undefined): 8.07%; for `CCN(Cc1ccccc1)C(=O)CN1CCCC(Cn2cncn2)C1` (centres undefined): -4.31%.

Regarding `CC(c1nc(C2CC2)no1)N(C)Cc1ccc(C#N)cc1` (centres undefined), the cytotoxicity at 70.5 h was -1.86%. Consider `Cc1ccccc1CN1CCC2(CC1)CN(S(=O)(=O)c1ccccc1)C2`, for which the cytotoxicity at 70.5 h is -6.98%.
